Measured values from patent publication US20230391786A1, “cGAS INHIBITORS” (Eli Lilly and Company, priority 2022, published 2023).
Where a name gives a salt, the structure may show the parent alone. Read-outs that look alike come from different tables or passages of the source.

Experiments:
recombinant human cGAS = recombinant human cGAS (Homo sapiens (Human), UniProt Q8N884); assay: In vitro inhibition assay of cGAS activity (cGAMP production, RapidFire mass spectrometry); format: biochemical; settings: 10 nM recombinant human cGAS, 60 nM 75-bp dsDNA, ATP, GTP, room temperature 3 hours, read-out: IC50 (μM), In vitro inhibition assay for Compounds 95-348
Method in brief: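 Product cGAMP was quantified by RapidFire MS against a difluoro-cGAMP internal standard after a formic acid quench. The reaction contained 10 nM recombinant full-length human cGAS, 75-bp dsDNA (60 nM), ATP and GTP (50 μM) and ran for 3 h at room temperature. IC50 values came from 4-parameter nonlinear regression.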

[1] = tested on: cGAS activity in THP1 cells (IFNb as marker); assay: Cellular assay to measure cGAS activity (IFNb production in PMA-differentiated THP1 cells stimulated by RDG-Adenovirus-GFP); format: cell-based, human
Method in brief: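 The readout is secreted IFNb measured by AlphaLISA after overnight compound exposure. THP1 cells, differentiated with PMA for 24 h and rested overnight, were infected with RDG-Adenovirus-GFP (1000 MOI, 4 h) before compounds were added; IC50 came from a 4-parameter logistic fit of inhibition against log concentration.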

[2] = Homo sapiens, THP-1, THP1 cells, PMA differentiated, RDG-Adenovirus-GFP 1000 MOI, IFNb AlphaLISA, overnight incubation, read-out: IC50 (μM), Cellular assay for Compounds 95-348

recombinant human cGAS, sequence (Q8N884 whole entry): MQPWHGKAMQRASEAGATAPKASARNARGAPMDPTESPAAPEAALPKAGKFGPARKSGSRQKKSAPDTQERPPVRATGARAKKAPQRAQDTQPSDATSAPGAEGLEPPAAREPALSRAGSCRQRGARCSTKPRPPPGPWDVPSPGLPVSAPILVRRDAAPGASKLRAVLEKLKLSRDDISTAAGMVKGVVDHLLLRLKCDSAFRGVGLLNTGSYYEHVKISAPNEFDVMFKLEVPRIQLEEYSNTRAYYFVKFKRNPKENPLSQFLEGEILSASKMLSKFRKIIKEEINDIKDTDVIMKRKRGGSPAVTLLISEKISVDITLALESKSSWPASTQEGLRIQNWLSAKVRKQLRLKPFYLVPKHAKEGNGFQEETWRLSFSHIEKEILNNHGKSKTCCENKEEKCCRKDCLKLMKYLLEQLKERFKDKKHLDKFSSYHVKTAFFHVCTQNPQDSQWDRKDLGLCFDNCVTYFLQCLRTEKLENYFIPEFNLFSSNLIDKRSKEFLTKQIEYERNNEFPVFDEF

| IC50 (recombinant human cGAS) [µM] | IC50 [1, 2] [µM] | IC50 ([1]; THP1 cells, PMA differentiated, RDG-Adenovirus-GFP 1000 MOI, IFNb AlphaLISA, overnight incubation, read-out: IC50 (μM), Cellular assay for Compounds 95-348) [µM] | SMILES | IC50 ([1]; Homo sapiens, THP-1, read-out: IC50 (μM), Cellular assay for Compounds 95-348) [µM] |
| --- | --- | --- | --- | --- |
| 0.014 | 0.509 |  | CC(=O)N1CCn2c(c(-c3cn[nH]c3)c3c(NCCCO)cc(Cl)c(Cl)c32)C1 [Example 253, 1-[6,7-Dichloro-9-(3-hydroxypropylamino)-10-(1H-pyrazol-4-yl)-3,4-dihydro-1H-pyrazino[1,2-a]indol-2-yl]ethanone] |  |
| 0.0102 | 0.516 |  | N#CCOc1cc(Cl)c(Cl)c2[nH]c(CO)c(-c3cn[nH]c3)c12 [Example 340, 2-((6,7-Dichloro-2-(hydroxymethyl)-3-(1H-pyrazol-4-yl)-1H-indol-4-yl)oxy)acetonitrile] |  |
| 0.00338 | 0.902 |  | N#CCOc1cc(Cl)c(Cl)c2c1c(-c1cn[nH]c1)c1n2CC[C@@H]1NC(=O)CO [Example 344, (S)—N-(5,6-Dichloro-8-(cyanomethoxy)-9-(1H-pyrazol-4-yl)-2,3-dihydro-1H-pyrrolo[1,2-a]indol-1-yl)-2-hydroxyacetamide] |  |
| 0.0242 | 0.56 |  | N#CCOc1cc(Cl)c(Cl)c2c1c(-c1cn[nH]c1)c1n2CCN(C(=O)C2COCCO2)C1 (centres unmarked) [Example 288, 2-((6,7-Dichloro-2-(1,4-dioxane-2-carbonyl)-10-(1H-pyrazol-4-yl)-1,2,3,4-tetrahydropyrazino[1,2-a]indol-9-yl)oxy)acetonitrile] |  |
| 0.0265 | 1.36 |  | CCN1CCn2c(c(-c3cn[nH]c3)c3c(NC(=O)C(F)F)cc(Cl)c(Cl)c32)C1=O [Example 251, N-[6,7-Dichloro-2-ethyl-1-oxo-10-(1H-pyrazol-4-yl)-3,4-dihydropyrazino[1,2-a]indol-9-yl]-2,2-difluoro-acetamide] |  |
| 0.0373 |  | 0.765 | O=C1NCC(C(=O)N2CCn3c(c(-c4cn[nH]c4)c4ccc(Cl)c(Cl)c43)C2)O1 (single isomer, unassigned) [Example 259, 5-[6,7-Dichloro-10-(1H-pyrazol-4-yl)-3,4-dihydro-1H-pyrazino[1,2-a]indole-2-carbonyl]oxazolidin-2-one] |  |
| 0.0122 | 0.872 |  | CC(=O)N[C@H]1Cc2c(-c3cn[nH]c3)c3c(OCC#N)cc(Cl)c(Cl)c3n2C1 [Example 245, (S)—N-(5,6-Dichloro-8-(cyanomethoxy)-9-(1H-pyrazol-4-yl)-2,3-dihydro-1H-pyrrolo[1,2-a]indol-2-yl)acetamide] |  |
| 0.0124 | 0.281 |  | O=C(Nc1cc(Cl)c(Cl)c2[nH]nc(-c3cn[nH]c3)c12)C(F)F [Example 337, N-(6,7-Dichloro-3-(1H-pyrazol-4-yl)-1H-indazol-4-yl)-2,2-difluoroacetamide] |  |
| 0.00789 | 0.426 |  | CN1CCn2c(c(-c3cn[nH]c3)c3c(OCCCO)cc(Cl)c(Cl)c32)C1=O [Example 339, 6,7-Dichloro-9-(3-hydroxypropoxy)-2-methyl-10-(1H-pyrazol-4-yl)-3,4-dihydropyrazino[1,2-a]indol-1(2H)-one] |  |
| 0.0235 | > 10 |  | O=C(CO)Nc1nnc(-c2[nH]c3c(Cl)c(Cl)ccc3c2-c2cn[nH]c2)o1 [Example 257, N-[5-[6,7-Dichloro-3-(1H-pyrazol-4-yl)-1H-indol-2-yl]-1,3,4-oxadiazol-2-yl]-2-hydroxy-acetamide] |  |
| 0.0306 | > 10 |  | NC(=O)COc1cc(Cl)c(Cl)c2c1c(-c1cn[nH]c1)c1n2CCN(C(=O)CO)C1 [Example 269, 2-[[6,7-Dichloro-2-(2-hydroxyacetyl)-10-(1H-pyrazol-4-yl)-3,4-dihydro-1H-pyrazino[1,2-a]indol-9-yl]oxy]acetamide] |  |
| 0.0351 | 8.47 |  | O=C1COCCN1CCC(=O)N1CCn2c(c(-c3cn[nH]c3)c3ccc(Cl)c(Cl)c32)C1 [Example 304, 4-(3-(6,7-Dichloro-10-(1H-pyrazol-4-yl)-3,4-dihydropyrazino[1,2-a]indol-2(1H)-yl)-3-oxopropyl)morpholin-3-one] |  |

More lines, now with the values behind:

| SMILES | IC50 (recombinant human cGAS) [µM] | IC50 [1, 2] [µM] | IC50 ([1]; THP1 cells, PMA differentiated, RDG-Adenovirus-GFP 1000 MOI, IFNb AlphaLISA, overnight incubation, read-out: IC50 (μM), Cellular assay for Compounds 95-348) [µM] | IC50 ([1]; Homo sapiens, THP-1, read-out: IC50 (μM), Cellular assay for Compounds 95-348) [µM] |
| --- | --- | --- | --- | --- |
| NC1(C(=O)N2CCn3c(c(-c4cn[nH]c4)c4ccc(Cl)c(Cl)c43)C2)CCOCC1 [Example 147, (4-Aminotetrahydro-2H-pyran-4-yl)(6,7-dichloro-10-(1H-pyrazol-4-yl)-3,4-dihydropyrazino[1,2-a]indol-2(1H)-yl)methanone] | 0.0474 | 4.63 |  |  |
| CCNc1cc(Cl)c(Cl)c2c1c(-c1cn[nH]c1)c1n2CCN(C)C1=O [Example 149, 6,7-Dichloro-9-(ethylamino)-2-methyl-10-(1H-pyrazol-4-yl)-3,4-dihydropyrazino[1,2-a]indol-1-one hydrochloride] | 0.0442 | 6.05 |  |  |
| CC(=O)N[C@H]1CCn2c1c(-c1cn[nH]c1)c1c(OCC#N)cc(Cl)c(Cl)c12 [Example 232, (S)—N-(5,6-Dichloro-8-(cyanomethoxy)-9-(1H-pyrazol-4-yl)-2,3-dihydro-1H-pyrrolo[1,2-a]indol-1-yl)acetamide] | 0.00376 | 0.668 |  |  |
| CC(=O)NC1Cc2c(-c3cn[nH]c3)c3ccc(Cl)c(Cl)c3n2C1 (centres unmarked) [Example 155, N-(5,6-Dichloro-9-(1H-pyrazol-4-yl)-2,3-dihydro-1H-pyrrolo[1,2-a]indol-2-yl)acetamide] | 0.0273 | 7.68 |  |  |
| CC(=O)Nc1cc(Cl)c(Cl)c2[nH]c(CO)c(-c3cn[nH]c3)c12 [Example 130, N-(6,7-Dichloro-2-(hydroxymethyl)-3-(1H-pyrazol-4-yl)-1H-indol-4-yl)acetamide] | 0.0711 | 0.815 |  |  |
| Cn1c(CNC(=O)CO)c(-c2cn[nH]c2)c2ccc(Cl)c(Cl)c21 [Example 133, N-[[6,7-Dichloro-1-methyl-3-(1H-pyrazol-4-yl)indol-2-yl]methyl]-2-hydroxy-acetamide] | 0.0112 | 0.498 |  |  |
| O=C(CO)NCc1[nH]c2c(Cl)c(Cl)cc(NC(=O)CO)c2c1-c1cn[nH]c1 [Example 221, N-[[6,7-Dichloro-4-[(2-hydroxyacetyl)amino]-3-(1H-pyrazol-4-yl)-1H-indol-2-yl]methyl]-2-hydroxy-acetamide] | 0.0238 | > 10 |  |  |
| O=C(Nc1cc(Cl)c(Cl)c2[nH]c(CO)c(-c3cn[nH]c3)c12)C(F)F [Example 131, N-(6,7-Dichloro-2-(hydroxymethyl)-3-(1H-pyrazol-4-yl)-1H-indol-4-yl)-2,2-difluoroacetamide] | 0.0131 | 0.163 |  |  |
| CC(=O)NC1CCc2c(-c3cn[nH]c3)c3c(OCC#N)cc(Cl)c(Cl)c3n2C1 (centres unmarked) [Example 102, N-[3,4-Dichloro-1-(cyanomethoxy)-10-(1H-pyrazol-4-yl)-6,7,8,9-tetrahydropyrido[1,2-a]indol-7-yl]acetamide] | 0.0166 | 1.28 |  |  |
| FC(F)CNc1cc(Cl)c(Cl)c2[nH]cc(-c3cn[nH]c3)c12 [Example 122, 6,7-Dichloro-N-(2,2-difluoroethyl)-3-(1H-pyrazol-4-yl)-1H-indol-4-amine] | 0.0137 | 0.88 |  |  |
| F[C@H]1C[C@@H](Oc2cc(Cl)c(Cl)c3[nH]cc(-c4cn[nH]c4)c23)C1 [Example 126, 6,7-Dichloro-4-(cis-3-fluorocyclobutoxy)-3-(1H-pyrazol-4-yl)-1H-indole] | 0.0358 | 1.45 |  |  |
| CC(C)(O)C(=O)NC1CCc2c(-c3cn[nH]c3)c3ccc(Cl)c(Cl)c3n2C1 (centres unmarked) [Example 189, N-[3,4-Dichloro-10-(1H-pyrazol-4-yl)-6,7,8,9-tetrahydropyrido[1,2-a]indol-7-yl]-2-hydroxy-2-methyl-propanamide] | 0.0272 | 1.89 |  |  |
| O=C(CF)Nc1cc(Cl)c(Cl)c2[nH]cc(-c3cn[nH]c3)c12 [Example 170, N-(6,7-Dichloro-3-(1H-pyrazol-4-yl)-1H-indol-4-yl)-2-fluoroacetamide] | 0.00567 |  |  | 0.129 |
| CCC(=O)NC1CCn2c1c(-c1cn[nH]c1)c1ccc(Cl)c(Cl)c12 (centres unmarked) [Example 239, N-(5,6-Dichloro-9-(1H-pyrazol-4-yl)-2,3-dihydro-1H-pyrrolo[1,2-a]indol-1-yl)propionamide] | 0.0613 | > 10 |  |  |
| CC(=O)N1CCn2c(c(-c3cn[nH]c3)c3c(NC(=O)CO)cc(Cl)c(Cl)c32)C1 [Example 146, N-(2-Acetyl-6,7-dichloro-10-(1H-pyrazol-4-yl)-1,2,3,4-tetrahydropyrazino[1,2-a]indol-9-yl)-2-hydroxyacetamide] | 0.0918 | > 10 |  |  |
| CC(CO)CNc1cc(Cl)c(Cl)c2[nH]cc(-c3cn[nH]c3)c12 (centres unmarked) [Example 205, 3-[[6,7-Dichloro-3-(1H-pyrazol-4-yl)-1H-indol-4-yl]amino]-2-methyl-propan-1-ol] | 0.0287 | 1.32 |  |  |
